From PubChem BioAssay (NCI) come the findings set out here.

Some test systems named below: A498 renal; A549 NSCLC; BT-549 breast; CAKI-1 renal; CCRF-CEM leukemia; HOP-92 NSCLC; K-562 leukemia; LOX IMVI melanoma; PC-3 prostate; SNB-19 CNS.
Experiment in all cases: DTP human tumour cell line panel, 48 h

Broadly, the GI50 is the concentration giving 50% growth inhibition. The term TGI denotes the concentration giving total growth inhibition. Read a high TGI as lower sensitivity of the cells.

Molecules are shown by their SMILES. Values joined by “and” are separate entries in the source; they are usually repeats but may differ in a detail not shown here. Equal values may be shown once.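 Cultured in 96-well plates, cells were exposed to test compound for 48 hours across five concentrations. The concentration for 50% growth inhibition is given as GI50. At the TGI there is no net growth.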

Turning to `O=C1/C=C/[C@@H](O)[C@@H]2C[C@@H](O)C[C@H]2/C=C/CCC[C@H](CCO)O1`, the GI50 was 0.0442 µM in the test on A498 renal; 0.401 µM with A549 NSCLC; 0.33 µM in the test with BT-549 breast; 0.324 µM with CAKI-1 renal; 0.362 µM with CCRF-CEM leukemia; 0.233 µM in the test with HOP-92 NSCLC. The GI50 in the test on K-562 leukemia is 0.365 µM; in the test with LOX IMVI melanoma it was 0.157 µM; with PC-3 prostate, 0.367 µM; in the test on SNB-19 CNS, 0.377 µM. Besides, the TGI with A498 renal was 0.274 µM; in the test with A549 NSCLC, more than 100 µM; with BT-549 breast it was more than 31.5 µM; in the test with CAKI-1 renal, 3.43 µM; in the test with CCRF-CEM leukemia it was more than 100 µM; in the test on HOP-92 NSCLC, 0.93 µM. In addition, the TGI in the test on K-562 leukemia was more than 100 µM; in the test with LOX IMVI melanoma it was 0.377 µM; with PC-3 prostate, more than 100 µM; with SNB-19 CNS, more than 100 µM.
As for `O=C1C2=C(C(=O)c3ccccc31)C(O)(S(=O)(=O)O)C(O)(S(=O)(=O)O)C1N=CC=CC21` (centres undefined), the GI50 in the test with A498 renal is 10.1 µM and 3.3 µM; in the test on A549 NSCLC, 4.75 µM and 4.09 µM; in the test with BT-549 breast, 5.88 µM and 5.04 µM; with CAKI-1 renal, 1.72 µM and 0.315 µM; in the test with CCRF-CEM leukemia, 6.47 µM; with HOP-92 NSCLC, 2.96 µM and 1.85 µM. For the same compound, the GI50 in the test on K-562 leukemia was 3.71 µM; in the test on LOX IMVI melanoma, 3.1 µM and 2.84 µM; in the test on PC-3 prostate, 4.69 µM and 3.2 µM; in the test with SNB-19 CNS it was 4.28 µM and 5.5 µM. Further, the TGI in the test on A498 renal was 40.1 µM and 12.7 µM; with A549 NSCLC it was 37.1 µM and 16.1 µM; in the test with BT-549 breast, 39.9 µM and 25.8 µM; in the test with CAKI-1 renal it was 9.4 µM and 1.87 µM; in the test with CCRF-CEM leukemia, more than 100 µM; in the test on HOP-92 NSCLC, 26.9 µM and 6.81 µM. Moreover, the TGI with K-562 leukemia is more than 100 µM; in the test with LOX IMVI melanoma, 54.9 µM and 20.3 µM; in the test with PC-3 prostate, > 100 µM and 29.6 µM; with SNB-19 CNS, 44.4 µM and > 100 µM.
Regarding `CCOC(=O)C1=C(Nc2ccc(OC)cc2)C(N)=NC1=N`, the GI50 in the test with A498 renal was 2.71 µM; with A549 NSCLC, 3.73 µM; with BT-549 breast, 5.37 µM; with CAKI-1 renal it was 5.84 µM; in the test with CCRF-CEM leukemia, 3.24 µM; in the test on HOP-92 NSCLC, 2.56 µM. The GI50 with K-562 leukemia was 3.02 µM; in the test on LOX IMVI melanoma it was 5.47 µM; in the test with PC-3 prostate, 3.26 µM; in the test on SNB-19 CNS, 3.68 µM. The TGI with A498 renal is 8.11 µM; with A549 NSCLC it was more than 100 µM; in the test on BT-549 breast, more than 100 µM; with CAKI-1 renal it was more than 100 µM; with CCRF-CEM leukemia, more than 100 µM; in the test on HOP-92 NSCLC, more than 100 µM. Also, the TGI in the test with K-562 leukemia, in the test on LOX IMVI melanoma, with PC-3 prostate and in the test on SNB-19 CNS was more than 100 µM in each case.
For `Clc1cnc(Nc2ccc(OCCN3CCCC3)cc2)nc1NCc1ccco1`, the GI50 was 1.45 µM in the test with A498 renal; 2.56 µM in the test with A549 NSCLC; 2.29 µM with BT-549 breast; 1.63 µM in the test with CAKI-1 renal; 2.54 µM in the test with CCRF-CEM leukemia; 1.14 µM with HOP-92 NSCLC. Moreover, the GI50 in the test with K-562 leukemia was 3.19 µM; in the test on LOX IMVI melanoma, 1.16 µM; in the test with PC-3 prostate, 2.66 µM; with SNB-19 CNS, 3.51 µM. The TGI in the test on A498 renal stood at 3.88 µM; in the test with A549 NSCLC it was 16.3 µM; in the test with BT-549 breast, 7.47 µM; in the test with CAKI-1 renal, 26.6 µM; in the test with CCRF-CEM leukemia, 9.5 µM; in the test on HOP-92 NSCLC, 6.6 µM. Further, the TGI in the test with K-562 leukemia was determined as 52.6 µM; with LOX IMVI melanoma, 4.26 µM; with PC-3 prostate, 8.53 µM; in the test on SNB-19 CNS, 13.5 µM.
Consider `Cc1nnc(N/N=C/c2ccc([N+](=O)[O-])o2)[nH]c1=O`, for which the GI50 in the test with A498 renal is 0.756 µM; in the test with A549 NSCLC, 2.57 µM; in the test with BT-549 breast, 0.566 µM; with CAKI-1 renal it was 1.79 µM; with CCRF-CEM leukemia, 0.441 µM; with HOP-92 NSCLC, 0.228 µM. Also, the GI50 is 0.796 µM with K-562 leukemia, 0.659 µM with LOX IMVI melanoma, 0.512 µM in the test on PC-3 prostate and 0.779 µM with SNB-19 CNS. Further, the TGI with A498 renal is 14.3 µM; in the test with A549 NSCLC, more than 49.5 µM; in the test with BT-549 breast, more than 21.5 µM; in the test on CAKI-1 renal, more than 100 µM; with HOP-92 NSCLC, 1.76 µM; in the test on K-562 leukemia, more than 100 µM. In addition, the TGI with LOX IMVI melanoma, in the test with PC-3 prostate and in the test on SNB-19 CNS was more than 100 µM in each case.
With `C=CCc1c(O)c(C(=O)/C=C/c2ccc(Cl)cc2)c(OC)c2ccoc12`, the GI50 in the test on A498 renal is 2.77 µM; in the test with A549 NSCLC it was 4.7 µM; in the test on BT-549 breast, 3 µM; in the test with CAKI-1 renal it was 2.61 µM; in the test with CCRF-CEM leukemia, 3.33 µM; with HOP-92 NSCLC, 1.69 µM. Besides, the GI50 is 3.25 µM in the test on K-562 leukemia, 1.63 µM in the test with LOX IMVI melanoma, 3.81 µM in the test with PC-3 prostate and 2.85 µM in the test on SNB-19 CNS. Moreover, the TGI is 13 µM with A498 renal; 18.2 µM with A549 NSCLC; 11 µM in the test on BT-549 breast; 11.6 µM in the test on CAKI-1 renal; more than 100 µM with CCRF-CEM leukemia; 5.94 µM in the test on HOP-92 NSCLC. The TGI in the test on K-562 leukemia is more than 100 µM; with LOX IMVI melanoma, 3.08 µM; in the test with PC-3 prostate, 15.6 µM; with SNB-19 CNS, 8.15 µM.
For `CCC(=O)NC1=C(Cl)C(=O)C(NC(=O)CC)=C(Cl)C1=O`, the GI50 in the test with A498 renal is 38.2 µM; in the test with A549 NSCLC, 29.4 µM; in the test on BT-549 breast, 16 µM; in the test with CAKI-1 renal, 5.98 µM; in the test on CCRF-CEM leukemia, 3.04 µM; with HOP-92 NSCLC, 9.98 µM. In addition, the GI50 is 11.8 µM in the test on K-562 leukemia, 16.3 µM in the test on LOX IMVI melanoma, 8.5 µM with PC-3 prostate and more than 41 µM in the test on SNB-19 CNS. The TGI is more than 72.6 µM in the test with A498 renal; more than 61.8 µM in the test with A549 NSCLC; 29.7 µM in the test with BT-549 breast; 10.8 µM with CAKI-1 renal; more than 21.6 µM in the test on CCRF-CEM leukemia; 28.8 µM in the test with HOP-92 NSCLC. The TGI in the test on K-562 leukemia was more than 27.9 µM; with LOX IMVI melanoma, 31.2 µM; with PC-3 prostate it was 21 µM; in the test on SNB-19 CNS, more than 55.7 µM.
